Data: patent US9133158B2, “Bicyclic dihydroisoquinoline-1-one derivatives” (Hoffmann-La Roche Inc., priority 2011, dated 2015)

Columns and labels:
human CYP11B1 = biological target: T1, human CYP11B1 (Homo sapiens, UniProt P15538); test: G-402 cellular enzyme assay, human CYP11B1 (cortisol release, HTRF); type: cell-based; settings: G-402 cells, 1 μM Deoxycortisol
T1 construct: expressed in transfected cells
T1 sequence (P15538 25-503): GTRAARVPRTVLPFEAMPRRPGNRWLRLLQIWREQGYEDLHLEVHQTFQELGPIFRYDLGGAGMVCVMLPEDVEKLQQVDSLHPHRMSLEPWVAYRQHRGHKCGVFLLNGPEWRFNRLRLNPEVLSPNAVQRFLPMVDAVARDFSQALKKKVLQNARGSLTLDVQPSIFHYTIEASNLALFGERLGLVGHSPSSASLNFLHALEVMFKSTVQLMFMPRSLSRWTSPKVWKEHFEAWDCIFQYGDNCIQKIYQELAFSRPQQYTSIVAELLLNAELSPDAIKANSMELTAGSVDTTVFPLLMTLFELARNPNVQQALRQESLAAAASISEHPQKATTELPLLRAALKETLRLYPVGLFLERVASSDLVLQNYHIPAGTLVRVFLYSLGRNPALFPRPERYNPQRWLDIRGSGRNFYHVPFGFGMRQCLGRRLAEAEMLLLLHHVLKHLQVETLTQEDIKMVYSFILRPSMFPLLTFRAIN
Excerpt: (§1) Herein we identified the use of the G-402 cell line as a host cell to ectopically express (transiently or stably) enzymes of the CYP11 family. Specifically we developed stable G-402 cells expressing ectopically human CYP11B1, human CYP11B2, human CYP11A1, cynmolgus CYP11B1 or cynomolgus CYP11B2 enzyme activity. Importantly the identified cell line G-402 expresses co-factors (adrenodoxin and adrenodoxin reductase) important for the activity of the CYP11 family and no relevant enzyme activity of the CYP11 family (in comparison to H295R cells) was detected in these cells. Therefore the G-402 cell line is uniquely suited as a host cell for the ectopic expression of enzymes from the CYP11 family.
(§2) G-402 cells can be obtained from ATCC(CRL-1440) and were originally derived from a renal leiomyoblastoma.
(§3) The expression plasmids contain the ORF for either human/cyno CYP11B1 or CYP11B2 under the control of a suitable promoter (CMV-promoter) and a suitable resistance marker (neomycin). Using standard techniques the expression plasmid is transfected into G-402 cells and these cells are then selected for expressing the given resistance markers. Individual cell-clones are then selected and assessed for displaying the desired enzymatic activity using 11-Deoxycorticosterone (Cyp11B2) or 11-Deoxycortisol (Cyp11B1) as a substrate.
(§4) G-402 cells expressing CYP11 constructs were established as described above and maintained in McCoy's 5a Medium Modified, ATCC Catalog No. 30-2007 containing 10% FCS and 400 μg/ml G418 (Geneticin) at 37° C. under an atmosphere of 5% CO2/95% air.
(§5) Cellular enzyme assays were performed in DMEM/F12 medium containing 2.5% charcoal treated FCS and appropriate concentration of substrate (0.3-10 uM 11-Deoxycorticosterone, 11-Deoxycortisol or Corticosterone). For assaying enzymatic activity, cells were plated onto 96 well plates and incubated for 16 h. An aliquot of the supernatant is then transferred and analyzed for the concentration of the expected product (Aldosterone for CYP11B2; Cortisol for CYP11B1). The concentrations of these steroids can be determined using HTRF assays from CisBio analyzing either Aldosterone or Cortisol.
(§6) Inhibition of the release of produced steroids can be used as a measure of the respective enzyme inhibition by test compounds added during the cellular enzyme assay. The dose dependent inhibition of enzymatic activity by a compound is calculated by means of plotting added inhibitor concentrations (x-axes) vs. measured steroid/product level (y-axes). The inhibition is then calculated by fitting the following 4-parameter sigmoidal function (Morgan-Mercer-Flodin (MMF) model) to the raw data points using the least squares method:
(§7) [formula] wherein, A is the maximum y value, B is the EC50 factor determined using XLFit, C is the minimum y value and D is the slope value.
(§8) EC50 values for compounds claimed herein were tested with the G402-based assay system described. Cyp11B2 enzyme activity was tested in presence of 1 μM Deoxycorticosterone and variable amounts of inhibitors; Cyp11B1 enzyme activity was tested in presence of 1 μM Deoxycortisol and variable amounts of inhibitors.

human CYP11B2 = biological target: T2, human CYP11B2 (Homo sapiens, UniProt P19099); test: G-402 cellular enzyme assay, human CYP11B2 (aldosterone release, HTRF); type: cell-based; settings: G-402 cells, 1 μM Deoxycorticosterone
T2 construct: expressed in transfected cells
T2 sequence (P19099 25-503): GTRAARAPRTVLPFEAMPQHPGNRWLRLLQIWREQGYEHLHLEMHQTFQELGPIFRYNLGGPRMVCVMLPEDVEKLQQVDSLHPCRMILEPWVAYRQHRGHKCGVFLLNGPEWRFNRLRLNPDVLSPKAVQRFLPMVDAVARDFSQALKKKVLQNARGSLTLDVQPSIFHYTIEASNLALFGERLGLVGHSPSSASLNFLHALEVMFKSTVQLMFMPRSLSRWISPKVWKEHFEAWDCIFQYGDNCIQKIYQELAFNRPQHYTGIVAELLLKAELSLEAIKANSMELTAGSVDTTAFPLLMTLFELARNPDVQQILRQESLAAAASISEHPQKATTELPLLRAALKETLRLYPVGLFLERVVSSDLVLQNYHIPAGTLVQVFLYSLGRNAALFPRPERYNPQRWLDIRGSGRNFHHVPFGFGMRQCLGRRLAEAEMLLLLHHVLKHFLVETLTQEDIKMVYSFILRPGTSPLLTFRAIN
Excerpt: as §1, §2, §3, §4, §5, §6, §7, §8

Work on `CC(=O)NC1CCCc2c1cncc2N1Cc2cc(Cl)ccc2C1=O` (single isomer, unassigned) [Example 323, N-[(R or S)-4-(5-Chloro-1-oxo-1,3-dihydro-isoindol-2-yl)-5,6,7,8-tetrahydro-isoquinolin-8-yl]-acetamide] yielded an EC50 (human CYP11B1) of 2350 nM and an EC50 (human CYP11B2) of 44.2 nM.

`CS(=O)(=O)NC1CCCc2c1cncc2N1CCc2cc(Cl)ccc2C1=O` (single isomer, unassigned) [Example 325, N-((R or S)-6-Chloro-1-oxo-3,4,5′,6′,7′,8′-hexahydro-1H-[2,4′]biisoquinolinyl-8′-yl)-methanesulfonamide] gave an EC50 (human CYP11B1) of 4490 nM and an EC50 (human CYP11B2) of 59.2 nM.

For `CS(=O)(=O)NC1CCCc2c1cncc2N1Cc2cc(Cl)ccc2C1=O` (single isomer, unassigned) [Example 326, N-[(S or R)-4-(5-Chloro-1-oxo-1,3-dihydro-isoindol-2-yl)-5,6,7,8-tetrahydro-isoquinolin-8-yl]-methanesulfonamide], the EC50 (human CYP11B1) was 6610 nM and the EC50 (human CYP11B2) was 1870 nM.

With `CS(=O)(=O)NC1CCCc2c1cncc2N1Cc2cc(Cl)ccc2C1=O` (single isomer, unassigned) [Example 327, N-[(R or S)-4-(5-Chloro-1-oxo-1,3-dihydro-isoindol-2-yl)-5,6,7,8-tetrahydro-isoquinolin-8-yl]-methanesulfonamide] the EC50 (human CYP11B1) was 10700 nM and the EC50 (human CYP11B2) was 1360 nM.

In the case of `CCC(=O)NC1CCCc2c1cncc2N1CCc2cc(Cl)ccc2C1=O` (single isomer, unassigned) [Example 328, N-((R or S)-6-Chloro-1-oxo-3,4,5′,6′,7′,8′-hexahydro-1H-[2,4′]biisoquinolinyl-8′-yl)-propionamide], the EC50 (human CYP11B1) is reported as 18400 nM and the EC50 (human CYP11B2) is reported as 173 nM.

`CCC(=O)NC1CCCc2c1cncc2N1CCc2cc(Cl)ccc2C1=O` (single isomer, unassigned) [Example 329, N-((S or R)-6-Chloro-1-oxo-3,4,5′,6′,7′,8′-hexahydro-1H-[2,4′]biisoquinolinyl-8′-yl)-propionamide] showed an EC50 (human CYP11B1) of 12000 nM and an EC50 (human CYP11B2) of 6020 nM.

With `CS(=O)(=O)NC1CCc2c1cncc2N1CCc2cc(Cl)ccc2C1=O` (single isomer, unassigned) [Example 331, N-[(R or S)-4-(6-Chloro-1-oxo-3,4-dihydro-1H-isoquinolin-2-yl)-6,7-dihydro-5H-[2]pyrindin-7-yl]-methanesulfonamide] the EC50 (human CYP11B1) was 35100 nM and the EC50 (human CYP11B2) was 4350 nM.

`CC(=O)NC1CCc2c1cncc2N1CCc2cc(Cl)ccc2C1=O` (single isomer, unassigned) [Example 333, N-[(S or R)-4-(6-Chloro-1-oxo-3,4-dihydro-1H-isoquinolin-2-yl)-6,7-dihydro-5H-[2]pyrindin-7-yl]-acetamide] gave an EC50 (human CYP11B1) of 5240 nM and an EC50 (human CYP11B2) of 95.8 nM.

Work on `CS(=O)(=O)NC1CCc2c1cncc2N1Cc2cc(Cl)ccc2C1=O` (single isomer, unassigned) [Example 334, N-[(R or S)-4-(5-Chloro-1-oxo-1,3-dihydro-isoindol-2-yl)-6,7-dihydro-5H-[2]pyrindin-7-yl]-methanesulfonamide] yielded an EC50 (human CYP11B1) of 34600 nM and an EC50 (human CYP11B2) of 383 nM.

`CCS(=O)(=O)NC1CCc2c1cncc2N1Cc2cc(Cl)ccc2C1=O` (single isomer, unassigned) [Example 336, Ethanesulfonic acid [(R or S)-4-(5-chloro-1-oxo-1,3-dihydro-isoindol-2-yl)-6,7-dihydro-5H-[2]pyrindin-7-yl]-amide] gave an EC50 (human CYP11B1) of 30000 nM and an EC50 (human CYP11B2) of 949 nM.

`CCC(=O)NC1CCc2c1cncc2N1Cc2cc(Cl)ccc2C1=O` (single isomer, unassigned) [Example 339, N-[(R or S)-4-(5-Chloro-1-oxo-1,3-dihydro-isoindol-2-yl)-6,7-dihydro-5H-[2]pyrindin-7-yl]-propionamide] was tested, and the EC50 (human CYP11B1) was 7990 nM and the EC50 (human CYP11B2) was 54.5 nM.

In the case of `CC[C@@H]1c2cc(Cl)ccc2C(=O)N1c1cncc2c1CC[C@@H]2NC(C)=O` (single isomer, unassigned) [Example 342, (+)-N—[(S or R)-4-((R or S)-5-Chloro-3-ethyl-1-oxo-1,3-dihydro-isoindol-2-yl)-6,7-dihydro-5H-[2]pyrindin-7-yl]-acetamide], the EC50 (human CYP11B1) is reported as 94.7 nM and the EC50 (human CYP11B2) is reported as 15.1 nM.

Molecule `CC[C@H]1c2cc(Cl)ccc2C(=O)N1c1cncc2c1CC[C@H]2NC(C)=O` (single isomer, unassigned) [Example 343] has an EC50 (human CYP11B1) of 4690 nM and an EC50 (human CYP11B2) of 134 nM.

`CC[C@@H]1c2cc(Cl)ccc2C(=O)N1c1cncc2c1CC[C@H]2NC(C)=O` (single isomer, unassigned) [Example 344, (+)-N—[(R or S)-4-((R or S)-5-Chloro-3-ethyl-1-oxo-1,3-dihydro-isoindol-2-yl)-6,7-dihydro-5H-[2]pyrindin-7-yl]-acetamide] showed an EC50 (human CYP11B1) of 1500 nM and an EC50 (human CYP11B2) of 31.2 nM.

Work on `CC[C@H]1c2cc(Cl)ccc2C(=O)N1c1cncc2c1CC[C@@H]2NC(C)=O` (single isomer, unassigned) [Example 345, (−)-N—[(S or R)-4-((S or R)-5-Chloro-3-ethyl-1-oxo-1,3-dihydro-isoindol-2-yl)-6,7-dihydro-5H-[2]pyrindin-7-yl]-acetamide] yielded an EC50 (human CYP11B1) of 2000 nM and an EC50 (human CYP11B2) of 49.4 nM.

Work on `CC[C@@H]1c2cc(Cl)ccc2C(=O)N1c1cncc2c1CCC[C@H]2NS(C)(=O)=O` (single isomer, unassigned) [Example 347, N-[(R or S)-4-((R or S)-5-Chloro-3-ethyl-1-oxo-1,3-dihydro-isoindol-2-yl)-5,6,7,8-tetrahydro-isoquinolin-8-yl]-methanesulfonamide] yielded an EC50 (human CYP11B1) of 22900 nM and an EC50 (human CYP11B2) of 162 nM.

For `CC[C@H]1c2cc(Cl)ccc2C(=O)N1c1cncc2c1CCC[C@@H]2NS(C)(=O)=O` (single isomer, unassigned) [Example 348, N-[(S or R)-4-((S or R)-5-Chloro-3-ethyl-1-oxo-1,3-dihydro-isoindol-2-yl)-5,6,7,8-tetrahydro-isoquinolin-8-yl]-methanesulfonamide], the EC50 (human CYP11B1) was 36900 nM and the EC50 (human CYP11B2) was 2830 nM.

Work on `CC[C@@H]1c2cc(Cl)ccc2C(=O)N1c1cncc2c1CCC[C@@H]2NS(C)(=O)=O` (single isomer, unassigned) [Example 349, N-[(S or R)-4-((R or S)-5-Chloro-3-ethyl-1-oxo-1,3-dihydro-isoindol-2-yl)-5,6,7,8-tetrahydro-isoquinolin-8-yl]-methanesulfonamide] yielded an EC50 (human CYP11B1) of 15100 nM and an EC50 (human CYP11B2) of 982 nM.

`CC[C@H]1c2cc(Cl)ccc2C(=O)N1c1cncc2c1CCC[C@H]2NS(C)(=O)=O` (single isomer, unassigned) [Example 350, N-[(R or S)-4-((S or R)-5-Chloro-3-ethyl-1-oxo-1,3-dihydro-isoindol-2-yl)-5,6,7,8-tetrahydro-isoquinolin-8-yl]-methanesulfonamide] showed an EC50 (human CYP11B1) of 3680 nM and an EC50 (human CYP11B2) of 59.4 nM.
